One experiment deals with T1, TrkA (Homo sapiens, UniProt P04629).
T1 construct: expressed in transfected cells; host or cells: U2OS
The experiment is described as follows: Enzyme Fragment Complementation cell-based assay, TrkA. To be noted: U2OS-cells over-expressing TrkA; ligand 10 ng/mL; 3 hours incubation. An excerpt:
(§1) A high throughput cell-based screen has been used to identify positive modulators of TrkA, TrkB and TrkC. The screen involves the use of cell-based assay overexpressing TrkA, TrkB or TrkC. The purpose of the assay is to identify compounds that modulate neurotrophin signalling (Forsell et al 2012). The assay can be used in inhibitor mode using a high concentration of ligand, in modulator mode using an intermediate concentration and in agonist mode using a low concentration of ligand.
(§2) The assay uses Enzyme Fragment Complementation (EFC) technique, which is a proximity-based assay. Briefly, cells used in this assay over-express two fusion proteins, i.e. the receptor, which can be either one of TrkA, TrkB, TrkC, IGF1R or FGFR1, fused to a small peptide of beta-galactosidase and an adaptor protein, i.e. SHC1 (or any other Trk-adaptor protein) fused to the major part of beta-galactosidase. […] The proximity between the small activating peptide on the receptor and the major part of beta-galactosidase on the adaptor protein leads to an active beta-galactosidase enzyme. The activation of the receptor is quantified by measuring the amount of active beta-galactosidase by its conversion of a non-luminescent substrate into a luminescent product.
(§3) U2OS-cells, over-expressing TrkA or TrkB or TrkC, are plated in 96- or 384-well plates and incubated overnight. Alternatively, cryopreserved HEK293-cells expressing IGFR1 or cryopreserved U2OS-cells expressing FGFR1 were plated in 96- or 384-well plates. On the following day, test compound was pre-mixed with ligand (NGF, BDNF, NT-3, IGF-1 or basic fibroblast growth factor (bFGF(FGF-2))) and the ligand-compound mixture is then added to the cells to yield a final ligand concentration of 10 ng/mL. After 3 hours of incubation at room temperature, the incubation is stopped by the addition of a beta-galactosidase substrate mixture containing detergents. The substrate mixture is incubated for 60 minutes at ambient temperature. The luminescence is thereafter read by the use of a plate reader.

The next experiment has as its target T2, TrkB (Homo sapiens, UniProt Q16620).
T2 construct: expressed in transfected cells; host or cells: U2OS
The experiment is described as follows: Enzyme Fragment Complementation cell-based assay, TrkB. The following applies: U2OS-cells over-expressing TrkB; ligand 10 ng/mL; 3 hours incubation.
Source text: as §1, §2, §3

Among the data in US12209071B2, “Triazine derivatives for treating diseases relating to neurotrophins” (AlzeCure Pharma AB, priority 2018, dated 2025) are EC50 values, retold here.

T2 sequence (Q16620 32-822): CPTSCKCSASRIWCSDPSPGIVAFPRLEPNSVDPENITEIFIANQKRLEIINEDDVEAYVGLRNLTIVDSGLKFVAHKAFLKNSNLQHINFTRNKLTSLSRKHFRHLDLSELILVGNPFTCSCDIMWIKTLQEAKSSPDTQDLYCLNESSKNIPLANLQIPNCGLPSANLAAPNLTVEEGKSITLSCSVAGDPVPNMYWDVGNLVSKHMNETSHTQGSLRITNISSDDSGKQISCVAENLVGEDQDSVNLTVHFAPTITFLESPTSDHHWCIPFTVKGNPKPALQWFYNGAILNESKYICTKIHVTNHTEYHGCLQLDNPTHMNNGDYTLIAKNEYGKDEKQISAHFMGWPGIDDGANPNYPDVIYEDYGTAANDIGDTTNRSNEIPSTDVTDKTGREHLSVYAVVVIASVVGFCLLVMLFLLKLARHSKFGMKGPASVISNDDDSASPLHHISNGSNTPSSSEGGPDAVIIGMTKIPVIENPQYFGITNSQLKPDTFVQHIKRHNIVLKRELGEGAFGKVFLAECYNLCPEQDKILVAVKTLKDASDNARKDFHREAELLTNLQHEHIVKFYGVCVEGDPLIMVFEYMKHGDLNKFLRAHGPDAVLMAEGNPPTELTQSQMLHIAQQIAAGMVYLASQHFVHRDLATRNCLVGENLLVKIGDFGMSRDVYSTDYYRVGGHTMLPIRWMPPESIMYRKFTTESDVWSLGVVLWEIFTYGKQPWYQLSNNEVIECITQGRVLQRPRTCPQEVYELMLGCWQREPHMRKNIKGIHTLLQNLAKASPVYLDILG
T1 sequence (P04629 33-796): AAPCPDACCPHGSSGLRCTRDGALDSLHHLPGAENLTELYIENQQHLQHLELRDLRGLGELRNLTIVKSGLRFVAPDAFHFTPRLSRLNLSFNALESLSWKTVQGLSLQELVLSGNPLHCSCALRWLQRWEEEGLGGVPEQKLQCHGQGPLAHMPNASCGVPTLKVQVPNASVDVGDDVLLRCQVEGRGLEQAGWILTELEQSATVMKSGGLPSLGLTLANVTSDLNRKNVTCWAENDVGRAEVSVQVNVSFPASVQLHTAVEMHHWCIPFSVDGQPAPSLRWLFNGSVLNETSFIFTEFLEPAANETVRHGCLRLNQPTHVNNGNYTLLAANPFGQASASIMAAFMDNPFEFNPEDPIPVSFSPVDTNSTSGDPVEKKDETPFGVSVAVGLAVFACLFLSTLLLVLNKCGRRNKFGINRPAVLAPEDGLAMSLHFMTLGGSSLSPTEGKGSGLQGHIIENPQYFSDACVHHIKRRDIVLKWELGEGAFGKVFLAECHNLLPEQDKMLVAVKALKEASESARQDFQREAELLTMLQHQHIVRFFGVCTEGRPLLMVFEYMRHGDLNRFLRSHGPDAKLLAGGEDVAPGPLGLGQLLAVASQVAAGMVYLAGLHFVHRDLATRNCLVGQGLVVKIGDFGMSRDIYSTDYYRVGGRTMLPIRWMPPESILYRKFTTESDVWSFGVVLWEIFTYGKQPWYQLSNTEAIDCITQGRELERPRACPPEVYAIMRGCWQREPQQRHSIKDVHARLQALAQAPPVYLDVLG

Usually EC50 stands for the concentration giving half of the maximal effect. For `COc1cccc(-n2c(=O)[nH]c(=O)n(-c3ccc(Oc4ccccc4)c(OC)c3)c2=O)c1` [Example 52, 1-(3-methoxy-4-phenoxyphenyl)-3-(3-methoxyphenyl)-1,3,5-triazinane-2,4,6-trione], the EC50 at TrkA turned out to be 380 nM; at TrkB, 410 nM. The matching figures for `Cc1cc(-n2c(=O)[nH]c(=O)n(-c3cccc(OC(F)(F)F)c3)c2=O)ccc1Oc1ccccc1` [Example 44, 1-(3-methyl-4-phenoxyphenyl)-3-[3-(trifluoromethoxy)phenyl]-1,3,5-triazinane-2,4,6-trione]: 330 nM and 260 nM.

As to `Cc1cc(-n2c(=O)[nH]c(=O)n(-c3cscn3)c2=O)ccc1Oc1ccccc1` [Example 63, 1-(3-methyl-4-phenoxyphenyl)-3-(1,3-thiazol-4-yl)-1,3,5-triazinane-2,4,6-trione], the EC50 at TrkA is 2380 nM; on TrkB, 950 nM. The matching figures for `COc1ccc(-n2c(=O)[nH]c(=O)n(-c3ccc(Oc4ccccc4)cc3)c2=O)cc1` [Example 2, 1-(4-methoxyphenyl)-3-(4-phenoxyphenyl)-1,3,5-triazinane-2,4,6-trione]: 1400 nM and 2400 nM. The matching figures for `Cc1cc(-n2c(=O)[nH]c(=O)n(-c3ccc4c(c3)OCO4)c2=O)ccc1Oc1ccccc1` [Example 48, 1-(2H-1,3-benzodioxol-5-yl)-3-(3-methyl-4-phenoxyphenyl)-1,3,5-triazinane-2,4,6-trione]: 500 nM and 260 nM. On to `Cc1cc(-n2c(=O)[nH]c(=O)n(-c3ccc4[nH]ccc4c3)c2=O)ccc1Oc1ccccc1` [Example 47, 1-(1H-indol-5-yl)-3-(3-methyl-4-phenoxyphenyl)-1,3,5-triazinane-2,4,6-trione], for which the EC50 on TrkA is 480 nM; on TrkB, 270 nM. Turning to `COCCOc1cc(-n2c(=O)[nH]c(=O)n(-c3cccc(OC)c3)c2=O)ccc1Oc1ccccc1` [Example 61, 1-[3-(2-methoxyethoxy)-4-phenoxyphenyl]-3-(3-methoxyphenyl)-1,3,5-triazinane-2,4,6-trione], the EC50 amounted to 420 nM on TrkA and 380 nM at TrkB.

Turning to `Cc1cc(-n2c(=O)[nH]c(=O)n(-c3ccc(F)cc3)c2=O)ccc1Oc1ccccc1` [Example 45, 1-(4-fluorophenyl)-3-(3-methyl-4-phenoxyphenyl)-1,3,5-triazinane-2,4,6-trione], the EC50 amounted to 470 nM on TrkA and 360 nM at TrkB.

As to `Cc1cc(Oc2ccccc2)ccc1-n1c(=O)[nH]c(=O)n(-c2ccccc2)c1=O` [Example 70, 1-(2-methyl-4-phenoxyphenyl)-3-phenyl-1,3,5-triazinane-2,4,6-trione], the EC50 at TrkA was determined as 660 nM; on TrkB it was 350 nM. The matching figures for `COc1ccc(-n2c(=O)[nH]c(=O)n(-c3ccc(Oc4ccccc4)c(OC)c3)c2=O)cc1` [Example 53, 1-(3-methoxy-4-phenoxyphenyl)-3-(4-methoxyphenyl)-1,3,5-triazinane-2,4,6-trione]: 960 nM and 780 nM. As for `Cc1ccc(-n2c(=O)[nH]c(=O)n(-c3ccc(Oc4ccccc4)cc3C)c2=O)cc1` [Example 71, 1-(2-methyl-4-phenoxyphenyl)-3-(4-methylphenyl)-1,3,5-triazinane-2,4,6-trione], the EC50 turned out to be 1660 nM on TrkA and 610 nM at TrkB.

For `Cc1cc(-n2c(=O)[nH]c(=O)n(-c3cccc(Cl)c3)c2=O)ccc1Oc1ccccc1` [Example 43, 1-(3-chlorophenyl)-3-(3-methyl-4-phenoxyphenyl)-1,3,5-triazinane-2,4,6-trione], the EC50 came to 160 nM at TrkA and 120 nM on TrkB. As for `Cc1ccc(-n2c(=O)[nH]c(=O)n(-c3cnc(Oc4ccccc4)c(C)c3)c2=O)cc1` [Example 78, 1-(5-Methyl-6-phenoxypyridin-3-yl)-3-(p-tolyl)-1,3,5-triazinane-2,4,6-trione], the EC50 at TrkA is 3510 nM; at TrkB, 3830 nM. In the same order, the values of `COCCOc1cc(-n2c(=O)[nH]c(=O)n(-c3ccc(C)s3)c2=O)ccc1Oc1ccccc1` [Example 66, 1-[3-(2-methoxyethoxy)-4-phenoxyphenyl]-3-(5-methylthiophen-2-yl)-1,3,5-triazinane-2,4,6-trione] are 370 nM and 370 nM. In the case of `Cc1cc(-n2c(=O)[nH]c(=O)n(-c3cccc4ccoc34)c2=O)ccc1Oc1ccccc1` [Example 73, 1-(1-benzofuran-7-yl)-3-(3-methyl-4-phenoxyphenyl)-1,3,5-triazinane-2,4,6-trione], the figures for the EC50 on TrkA and at TrkB were 140 nM and 100 nM, respectively. Regarding `Cc1ccccc1Oc1ccc(-n2c(=O)[nH]c(=O)n(-c3ccccc3)c2=O)cc1C` [Example 62, 1-[3-methyl-4-(2-methylphenoxy)phenyl]-3-phenyl-1,3,5-triazinane-2,4,6-trione], the EC50 at TrkA came out at 930 nM; at TrkB, 3180 nM.

Turning to `O=c1[nH]c(=O)n(-c2ccc3c(cnn3-c3ccccc3)c2)c(=O)n1-c1ccccc1` [Example 19, 1-phenyl-3-(1-phenyl-1H-indazol-5-yl)-1,3,5-triazinane-2,4,6-trione], the EC50 on TrkA turned out to be 820 nM; at TrkB, 880 nM.

`COc1cc(Oc2ccccc2)c(C)cc1-n1c(=O)[nH]c(=O)n(-c2ccccc2)c1=O` [Example 13, 1-(2-methoxy-5-methyl-4-phenoxyphenyl)-3-phenyl-1,3,5-triazinane-2,4,6-trione]: the concentration giving a half-maximal response (EC50) was determined as 620 nM at TrkA and 450 nM at TrkB. Consider `COc1cc(-n2c(=O)[nH]c(=O)n(-c3ccccc3)c2=O)cc(C)c1Oc1ccccc1` [Example 14, 1-(3-methoxy-5-methyl-4-phenoxyphenyl)-3-phenyl-1,3,5-triazinane-2,4,6-trione], for which the EC50 on TrkA is 490 nM. `COC(=O)c1cc(-n2c(=O)[nH]c(=O)n(-c3ccccc3)c2=O)ccc1Oc1ccccc1` [Example 74, methyl 2-phenoxy-5-(2,4,6-trioxo-3-phenyl-1,3,5-triazinan-1-yl)benzoate]: the EC50 at TrkA came out at 580 nM; at TrkB, 540 nM. In the same order, the values of `CN(C)C(=O)COc1cc(-n2c(=O)[nH]c(=O)n(-c3ccccc3)c2=O)ccc1Oc1ccccc1` [Example 77, 1-{3-[2-(Dimethylamino)-2-oxoethoxy]-4-phenoxyphenyl}-3-phenyl-1,3,5-triazinane-2,4,6-trione] are 430 nM and 360 nM.

With `CN(C)C(=O)Cc1cc(-n2c(=O)[nH]c(=O)n(-c3ccccc3)c2=O)ccc1Oc1ccccc1` [Example 76, 1-{3-[2-(Dimethylamino)-2-oxoethyl]-4-phenoxyphenyl}-3-phenyl-1,3,5-triazinane-2,4,6-trione], the EC50 on TrkA worked out at 33000 nM; at TrkB it was 4530 nM. On to `COc1c(-n2c(=O)[nH]c(=O)n(-c3ccccc3)c2=O)ccc(Oc2ccccc2)c1C` [Example 33, 1-(2-methoxy-3-methyl-4-phenoxyphenyl)-3-phenyl-1,3,5-triazinane-2,4,6-trione], for which the EC50 came to 230 nM at TrkA and 100 nM at TrkB.

Turning to `COCCOc1cc(-n2c(=O)[nH]c(=O)n(-c3ccc(OC)cc3)c2=O)ccc1Oc1ccccc1` [Example 60, 1-[3-(2-methoxyethoxy)-4-phenoxyphenyl]-3-(4-methoxyphenyl)-1,3,5-triazinane-2,4,6-trione], the EC50 was 300 nM at TrkA and 220 nM at TrkB. Consider `COc1ccccc1-n1c(=O)[nH]c(=O)n(-c2ccc(Oc3ccccc3)c(C)c2)c1=O` [Example 51, 1-(2-methoxyphenyl)-3-(3-methyl-4-phenoxyphenyl)-1,3,5-triazinane-2,4,6-trione], for which the values for the half-maximal effective concentration (EC50) at TrkA and at TrkB were 180 nM and 260 nM, respectively. In the same order, the values of `Cc1cc(-n2c(=O)[nH]c(=O)n(-c3cccc4occc34)c2=O)ccc1Oc1ccccc1` [Example 72, 1-(1-benzofuran-4-yl)-3-(3-methyl-4-phenoxyphenyl)-1,3,5-triazinane-2,4,6-trione] are 200 nM and 110 nM. Regarding `N#Cc1cccc(-n2c(=O)[nH]c(=O)n(-c3ccc(Oc4ccccc4)cc3)c2=O)c1` [Example 3, 3-[2,4,6-trioxo-3-(4-phenoxyphenyl)-1,3,5-triazinan-1-yl]benzonitrile], at TrkA, the EC50 stood at 6700 nM. Same read-out and setting: under `COc1cc(-n2c(=O)[nH]c(=O)n(C)c2=O)cc(C)c1Oc1ccccc1` [Example 32, 1-(3-methoxy-5-methyl-4-phenoxyphenyl)-3-methyl-1,3,5-triazinane-2,4,6-trione] stands 800 nM. As for `Cn1c(=O)[nH]c(=O)n(-c2ccc3c(cnn3-c3ccccc3)c2)c1=O` [Example 31, 1-methyl-3-(1-phenyl-1H-indazol-5-yl)-1,3,5-triazinane-2,4,6-trione], the EC50 was 46000 nM at TrkA and 69000 nM on TrkB.
